Measurements published in ChEMBL document CHEMBL4190354, “A Realistic View on "The Essential Medicinal Chemistry of Curcumin"” (ACS Med Chem Lett, 2017).

Experiments:
[1] = Elimination half life in Sprague-Dawley rat at 10 mg/kg, iv by LC-MS/MS analysis; type: ADME, organism-based; details: in vivo, read-out: beta t1/2
[2] = Elimination half life in Sprague-Dawley rat at 500 mg/kg, po by LC-MS/MS analysis; type: ADME, organism-based; details: in vivo, read-out: beta t1/2

half-life [1]: 28.1 min | half-life [2]: 44.5 min
Compound: COc1cc(/C=C/C(=O)CC(=O)/C=C/c2ccc(O)c(OC)c2)ccc1O [CURCUMIN]
